Assay [1] has as its target T1, recombinant human JAK1 kinase domain protein (Residues 854-1154) (Homo sapiens, UniProt P23458).
T1 construct: human JAK1 kinase domain protein (Residues 854-1154); purchased Proteros Biostructures GmbH (Martinsried, Germany); host or cells: insect cells
The assay is described as follows: JAK1 biochemical assay (microfluidic mobility shift, peptide phosphorylation). The following applies: 25 μM ATP, 1 nM total JAK1; Ki calculated from Ki app (tight-binding, competitive); read-out: Biochem JAK1 Ki. How it is done: (§1) The in vitro biochemical assays quantify JAK-catalyzed phosphorylation of a synthetic peptide, as detected using a LabChip® EZ Reader II microfluidic mobility shift instrument (PerkinElmer; Waltham, MA). The substrate peptide Y-1B has the sequence 5-FAM-VALVDGYFRLTT-NH2. Y-1B is fluorescently labeled on the N-terminus with 5-FAM (5-carboxyfluorescein) and contains a single tyrosine residue (Y) that can be phosphorylated by JAK activity. The substrate peptide stock is prepared in DMSO at 5 mM. Purified recombinant human JAK1 kinase domain protein (Residues 854-1154) was expressed in insect cells and procured from Proteros Biostructures GmbH (Martinsried, Germany). Recombinant human JAK2 kinase domain protein (Residues 812-1132) was expressed in insect cells and purified at Genentech, Inc. (South San Francisco, CA).
(§2) The kinase reaction mixtures contained 100 mM 4-(2-hydroxyethyl)-1-piperazineethanesulfonic acid (HEPES) buffer (pH 7.2), 10 mM magnesium chloride, 0.015% Brij® 35, 4 mM dithiothreitol, 1.5 μM Y-1B peptide substrate, 25 μM adenosine triphosphate (ATP), 1 nM total JAK1 or 0.2 nM total JAK2, and up to 1000 nM test compound in a final concentration of 2% (volume to volume [v/v]) DMSO. In each titration experiment, test compound was tested in duplicate at each of the twelve concentrations. Blank reactions contained ATP, peptide, and DMSO, but no JAK or test compound, whereas uninhibited control reactions contained ATP, peptide, JAK, and DMSO, but no test compound.
(§3) Peptide plus ATP mixture (24 μL) was added to 1 μL of test compound in DMSO (or DMSO alone). The reactions were initiated by adding 25 μL of JAK enzyme to the inhibitor/peptide/ATP mixture before thoroughly mixing the resultant solution. Reactions were incubated at room temperature (22° C.-23° C.) in a final volume of 50 μL per well in 384-well plates. After a 30-minute incubation, the reactions were stopped by adding 25 μL of 150 mM ethylenediaminetetraacetic acid in 100 mM HEPES buffer (pH 7.2) containing 0.015% Brij 35 to each well.
(§4) In each reaction, the residual Y-1B substrate and the phospho-peptide product generated were separated using the EZ Reader 1 instrument. Electrophoretic separation of molecules of product from molecules of substrate was achieved using downstream and upstream voltages of −500 and −2600 V, respectively, at an operating pressure of −1.3 psi. The 5-FAM group present on both the substrate and product peptides was excited at 488 nm, the fluorescence was detected at 530 nm, and the peak heights were reported.
(§5) The extent (or percent) of conversion of substrate to product was calculated from the corresponding peak heights in the electropherogram using HTS Well Analyzer software, Version 5.2 (PerkinElmer), and the following equation (Equation 1): % conversion=[P[…](S+P)]×100 Equation 1 where S and P represent the peak heights of the substrate and product, respectively. After any baseline signal from blank wells containing no JAK was subtracted from the signal of all test wells, the % conversion data were converted to fractional activity as shown in Equation 2, where νi and νo are the % conversion in the presence and absence of test compound, respectively. The % conversion observed in the uninhibited control reactions containing JAK and DMSO vehicle, but no test compound, was defined to have fractional activity=1 (with no inhibitor present, νi=νo), whereas blank wells with no JAK were defined as having fractional activity=0. Fractional activity was plotted against test compound concentration and the data were fitted using XLfit software (IDBS; Guildford, United Kingdom) to a tight-binding apparent inhibition constant (Ki^app) quadratic equation (see Equation 2) (Williams J W, Morrison J F. The kinetics of reversible tight-binding inhibition. Methods Enymol 1979; 63:437-67), which was used to calculate fractional activity and Ki^app […]

Assay [2] deals with T2, Recombinant human JAK2 kinase domain protein (Residues 812-1132) (Homo sapiens, UniProt O60674).
T2 construct: human JAK2 kinase domain protein (Residues 812-1132); made in house; host or cells: insect cells
T2 sequence (O60674 812-1132): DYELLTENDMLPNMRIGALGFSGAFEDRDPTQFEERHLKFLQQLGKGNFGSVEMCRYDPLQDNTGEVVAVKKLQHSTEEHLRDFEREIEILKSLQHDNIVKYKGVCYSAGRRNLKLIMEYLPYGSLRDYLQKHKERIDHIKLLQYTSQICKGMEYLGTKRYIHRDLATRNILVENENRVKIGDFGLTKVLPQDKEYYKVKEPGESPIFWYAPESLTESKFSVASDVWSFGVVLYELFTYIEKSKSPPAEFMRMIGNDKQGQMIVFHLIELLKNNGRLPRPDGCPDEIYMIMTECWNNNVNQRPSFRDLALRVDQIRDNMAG
The assay is described as follows: JAK2 biochemical assay (microfluidic mobility shift, peptide phosphorylation). The note with it: 25 μM ATP, 0.2 nM total JAK2; Ki calculated from Ki app (tight-binding, competitive); read-out: Biochem JAK2 Ki. How it is done:
as §1, §2, §3, §4, §5

The test system of assay [3] is JAK1 (IL-13-stimulated STAT6 phosphorylation in BEAS-2B cells). The assay is described as follows: P-STAT6 BEAS-2B+IL-13 cell assay. The following applies: 1 hour compound, IL-13 15 minutes, IC50 by four-parameter fit, read-out: Cellular JAK1 PSTAT6 BEAS2B + IL13. The class given is cell-based, human. Here is the method: In order to study the effect of JAK1 inhibitors in a cell line that is relevant to the cell biology of human asthma, an IL-13-stimulated STAT6 phosphorylation assay in the human lung bronchial epithelial BEAS-2B cell line was developed.
BEAS-2B cells (ATCC® CRL-9609™) were grown in Bronchial Epithelial Growth Medium (BEGM) (Lonza Catalog No. CC-3170; Walkersville, MD; or PromoCell Catalog No. C-21060; Heidelberg, Germany). Test compound stock solutions (0.5 mM in DMSO) were serially diluted 1:2 in DMSO to generate a 10-point concentration curve (at 500× test concentration), which was further diluted by a 50-fold dilution step in BEGM to generate a 10× concentration curve (in 2% DMSO). Cells were plated at 100,000 cells/well in 200 μL of BEGM in 96-well plates and incubated for 48 hours at 37° C. in a humidified incubator. Medium was aspirated from the cells and replaced with 70 μL of fresh BEGM. Diluted test compound (10 μL; or 2% DMSO in assay medium) was added to the cells, and the plates were incubated for 1 hour at 37° C. in a humidified incubator. Twenty μL of 250 ng/mL human recombinant IL-13 (Bio Techne Catalog No. 213-ILB) was then added to the cells and incubated for 15 minutes at 37° C. Medium was aspirated from the cells and 60 μL of ice-cold 1×cell lysis buffer (Cell Signaling Technologies; Catalog No. 9803S) containing 1 mM PMSF was added to the cells. Assay plates were incubated at −80° C. for at least 1 hour. P-STAT6 was measured by coating GAR plates (MSD; Catalog No. L45RA-1) with rabbit anti-human total STAT6 antibody (Cell Signaling Technologies; Catalog No. 9362S), incubating the cell lysates in the coated plates overnight at 4° C., and then detecting with mouse anti-phospho-STAT6 (Tyr641) Clone 16E12 antibody (Millipore; Catalog No. 05-590, custom labeled by MSD with SULFO-tag) using standard MSD plate processing, washing, and detection protocols. Plates were read on the MESO SECTOR S600.
Data analysis was performed by subtracting negative control values from all wells and determining percent of control using the positive control values; the IC50 was determined with a four-parameter logistic fit model as shown in Equation 4.

These results are taken from US12247032B2, “Substituted pyrazolo[1,5-a]pyrimidines as inhibitors of JAK kinases” (Genentech, Inc., priority 2019, dated 2025).

Read-outs that look alike come from different tables or passages of the source.

T1 sequence (P23458 854-1154): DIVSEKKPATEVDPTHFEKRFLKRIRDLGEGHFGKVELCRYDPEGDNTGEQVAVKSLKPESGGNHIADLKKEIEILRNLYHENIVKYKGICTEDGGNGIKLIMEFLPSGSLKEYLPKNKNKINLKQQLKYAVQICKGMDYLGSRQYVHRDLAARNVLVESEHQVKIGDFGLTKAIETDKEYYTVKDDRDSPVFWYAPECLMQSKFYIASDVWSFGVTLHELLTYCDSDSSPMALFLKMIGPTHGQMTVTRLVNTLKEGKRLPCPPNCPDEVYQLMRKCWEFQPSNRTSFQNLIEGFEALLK

On to `CN(C)C1CCC(N2CC(n3nnc(Cn4cc(NC(=O)c5cnn6cccnc56)c(-c5cc(OC(F)F)ccc5OC(F)F)n4)n3)C2)C1` (single isomer, unassigned) [Example 76, N-[3-[2,5-bis(difluoromethoxy)phenyl]-1-[[2-[1-[3-(dimethylamino)cyclopentyl]azetidin-3-yl]tetrazol-5-yl]methyl]pyrazol-4-yl]pyrazolo[1,5-a]pyrimidine-3-carboxamide], for which the Ki in assay [1] is 2.4 nM; in assay [2], 1.9 nM. Moreover, the IC50 in assay [3] turned out to be 74 nM.
Take `CN(C)CCN(C)C1CC(n2nnc(Cn3cc(NC(=O)c4cnn5cccnc45)c(-c4cc(OC(F)F)ccc4OC(F)F)n3)n2)C1` (single isomer, unassigned) [Example 81, N-[3-[2,5-bis(difluoromethoxy)phenyl]-1-[[2-[3-[2-(dimethylamino)ethyl-methyl-amino]cyclobutyl]tetrazol-5-yl]methyl]pyrazol-4-yl]pyrazolo[1,5-a]pyrimidine-3-carboxamide; formic acid]: the Ki in assay [1] is 0.52 nM; in assay [2], 0.47 nM. In addition, the IC50 in assay [3] (Homo sapiens, BEAS-2B, 1 h) came to 29 nM.
For `CN(C)CCN(C)C1CC(n2nnc(Cn3cc(NC(=O)c4cnn5cccnc45)c(-c4cc(OC(F)F)ccc4OC(F)F)n3)n2)C1` (single isomer, unassigned) [Example 82, N-[3-[2,5-bis(difluoromethoxy)phenyl]-1-[[2-[3-[2-(dimethylamino)ethyl-methyl-amino]cyclobutyl]tetrazol-5-yl]methyl]pyrazol-4-yl]pyrazolo[1,5-a]pyrimidine-3-carboxamide; formic acid], the Ki in assay [1] is 0.54 nM; in assay [2] it was 0.47 nM. Also, the IC50 in assay [3] (formic acid) was found to be 32 nM.
Turning to `CN(C)CC(F)CN1CC(n2nnc(Cn3cc(NC(=O)c4cnn5cccnc45)c(-c4cc(OC(F)F)ccc4OC(F)F)n3)n2)C1` (single isomer, unassigned) [Example 83, N-[3-[2,5-bis(difluoromethoxy)phenyl]-1-[[2-[1-[3-(dimethylamino)-2-fluoro-propyl]azetidin-3-yl]tetrazol-5-yl]methyl]pyrazol-4-yl]pyrazolo[1,5-a]pyrimidine-3-carboxamide], the Ki in assay [1] was 0.43 nM; in assay [2], 0.39 nM. The IC50 in assay [3] (Homo sapiens, BEAS-2B, 1 h) worked out at 17 nM.
Regarding `CN(C)CC(F)CN1CC(n2nnc(Cn3cc(NC(=O)c4cnn5cccnc45)c(-c4cc(OC(F)F)ccc4OC(F)F)n3)n2)C1` (single isomer, unassigned) [Example 84, N-[3-[2,5-bis(difluoromethoxy)phenyl]-1-[[2-[1-[3-(dimethylamino)-2-fluoro-propyl]azetidin-3-yl]tetrazol-5-yl]methyl]pyrazol-4-yl]pyrazolo[1,5-a]pyrimidine-3-carboxamide], the Ki in assay [1] is 0.55 nM; in assay [2], 0.5 nM. In assay [3], the IC50 turned out to be 20 nM.
Turning to `CN1CCC[C@@H]1Cn1nnc(Cn2cc(NC(=O)c3cnn4cccnc34)c(-c3cc(OC(F)F)ccc3OC(F)F)n2)n1` (stereo in doubt) [Example 49, N-[3-[2,5-bis(difluoromethoxy)phenyl]-1-[[2-[[rac-(2R)-1-methylpyrrolidin-2-yl]methyl]tetrazol-5-yl]methyl]pyrazol-4-yl]pyrazolo[1,5-a]pyrimidine-3-carboxamide], the Ki in assay [1] is 0.53 nM; in assay [2] it was 0.41 nM. In addition, the IC50 in assay [3] (Homo sapiens, BEAS-2B, 1 h) is 19 nM.
On to `CN1CCC[C@H]1Cn1nnc(Cn2cc(NC(=O)c3cnn4cccnc34)c(-c3cc(OC(F)F)ccc3OC(F)F)n2)n1` (stereo in doubt) [Example 53, N-[3-[2,5-bis(difluoromethoxy)phenyl]-1-[[2-[[rac-(2S)-1-methylpyrrolidin-2-yl]methyl]tetrazol-5-yl]methyl]pyrazol-4-yl]pyrazolo[1,5-a]pyrimidine-3-carboxamide], for which the Ki is 0.48 nM in assay [1] and 0.32 nM in assay [2]. Besides, the IC50 in assay [3] (Homo sapiens, BEAS-2B, 1 h) is 35 nM.
`O=C(Nc1cn(Cc2nnn(CCO)n2)nc1-c1cc(Cl)ccc1OC(F)F)c1cnn2cccnc12` [Example 1, N-[3-[5-chloro-2-(difluoromethoxy)phenyl]-1-[[2-(2-hydroxyethyl)tetrazol-5-yl]methyl]pyrazol-4-yl]pyrazolo[1,5-a]pyrimidine-3-carboxamide]: the values for the Ki in assay [1] and in assay [2] were 0.15 nM and 0.089 nM, respectively. The IC50 in assay [3] (Homo sapiens, BEAS-2B, 1 h) stood at 6.7 nM.
For the molecule `O=C(Nc1cn(Cc2nnn(CCN3CCOCC3)n2)nc1-c1cc(Cl)ccc1OC(F)F)c1cnn2cccnc12` [Example 2, N-[3-[5-chloro-2-(difluoromethoxy)phenyl]-1-[[2-(2-morpholinoethyl)tetrazol-5-yl]methyl]pyrazol-4-yl]pyrazolo[1,5-a]pyrimidine-3-carboxamide], the Ki in assay [1] was 0.54 nM; in assay [2] it was 0.29 nM. For the same molecule, in assay [3] (Homo sapiens, BEAS-2B, 1 h), the IC50 was 14 nM.
Turning to `CN1CCC(n2nnc(Cn3cc(NC(=O)c4cnn5cccnc45)c(-c4cc(Cl)ccc4OC(F)F)n3)n2)CC1` [Example 3, N-[3-[5-chloro-2-(difluoromethoxy)phenyl]-1-[[2-(1-methyl-4-piperidyl)tetrazol-5-yl]methyl]pyrazol-4-yl]pyrazolo[1,5-a]pyrimidine-3-carboxamide], the Ki in assay [1] is 0.58 nM; in assay [2], 0.43 nM. Further, the IC50 in assay [3] (Homo sapiens, BEAS-2B, 1 h) stood at 14 nM.
